US11760762B2, “Thienopyranones and furanopyranones as kinase, bromodomain, and checkpoint inhibitors” (SignalRx Pharmaceuticals, Inc., priority 2017, dated 2023)
Read-outs that look alike come from different tables or passages of the source.

How the values were obtained:
[1] = test system: Mino and Granta cells; experiment: Western blot PI3K and CDK4/cyclin D/Rb signaling in mantle cell lymphoma cells; type: cell-based; details: 24 hours
Excerpt: Cells were lysed in RIPA buffer and equal protein was loaded on SDS-PAGE gel followed by western blotting using p-AKT-Ser473, AKT, pRB-S780/811, RB, pP70S6K. β-actin served as loading control.

[2] = molecular target: T1, CDK2 (Homo sapiens, UniProt P24941); experiment: Cyclin dependent kinase inhibition (Reaction Biology Corp.); type: biochemical
T1 construct: Reaction Biology Corp., Malvern, PA (contract assay service)
Experimental: (§1) PI3K-alpha, PI3K-beta, PI3K-gamma, and PI3K-delta inhibition activity was determined by Thermo Fisher Scientific-Biosciences Life Sciences Solutions, Madison, WI The bromodomain protein inhibition (binding domain 1 and 2 of BRD4) was determined by Reaction Biology Corp., Malvern, PA The cyclin dependent kinase inhibition on proteins such as CDK2, CDK4, CDK6, and CDK9 was determined by Reaction Biology Corp., Malvern, PA.

[3] = molecular target: T2, CDK9 (Homo sapiens, UniProt P50750); experiment: as above; type: biochemical
T2 construct: Reaction Biology Corp., Malvern, PA (contract assay service)
Experimental: as §1

[4] = test system: Huh7 cells; experiment: Huh7 tumor implantation in NGS mice, safety and efficacy; details: 30 mg/kg oral gavage, 5 times per week for 2 weeks
Excerpt: 1×10^7 Huh7 cells were implanted into NGS mice. When tumors reached ˜100 mm^3 after 14 days of tumor implantation, animals were divided into four groups (n=8 per group).

[5] = molecular target: T3, PI3K-gamma (Homo sapiens, UniProt P48736); experiment: PI3K inhibition (Thermo Fisher Scientific); type: biochemical; details: 10-point curve, grouped by potency; read-out: IC50 P13K γ
T3 construct: Thermo Fisher Scientific-Biosciences Life Sciences Solutions, Madison, WI (contract assay service)
T3 sequence (P48736 whole entry): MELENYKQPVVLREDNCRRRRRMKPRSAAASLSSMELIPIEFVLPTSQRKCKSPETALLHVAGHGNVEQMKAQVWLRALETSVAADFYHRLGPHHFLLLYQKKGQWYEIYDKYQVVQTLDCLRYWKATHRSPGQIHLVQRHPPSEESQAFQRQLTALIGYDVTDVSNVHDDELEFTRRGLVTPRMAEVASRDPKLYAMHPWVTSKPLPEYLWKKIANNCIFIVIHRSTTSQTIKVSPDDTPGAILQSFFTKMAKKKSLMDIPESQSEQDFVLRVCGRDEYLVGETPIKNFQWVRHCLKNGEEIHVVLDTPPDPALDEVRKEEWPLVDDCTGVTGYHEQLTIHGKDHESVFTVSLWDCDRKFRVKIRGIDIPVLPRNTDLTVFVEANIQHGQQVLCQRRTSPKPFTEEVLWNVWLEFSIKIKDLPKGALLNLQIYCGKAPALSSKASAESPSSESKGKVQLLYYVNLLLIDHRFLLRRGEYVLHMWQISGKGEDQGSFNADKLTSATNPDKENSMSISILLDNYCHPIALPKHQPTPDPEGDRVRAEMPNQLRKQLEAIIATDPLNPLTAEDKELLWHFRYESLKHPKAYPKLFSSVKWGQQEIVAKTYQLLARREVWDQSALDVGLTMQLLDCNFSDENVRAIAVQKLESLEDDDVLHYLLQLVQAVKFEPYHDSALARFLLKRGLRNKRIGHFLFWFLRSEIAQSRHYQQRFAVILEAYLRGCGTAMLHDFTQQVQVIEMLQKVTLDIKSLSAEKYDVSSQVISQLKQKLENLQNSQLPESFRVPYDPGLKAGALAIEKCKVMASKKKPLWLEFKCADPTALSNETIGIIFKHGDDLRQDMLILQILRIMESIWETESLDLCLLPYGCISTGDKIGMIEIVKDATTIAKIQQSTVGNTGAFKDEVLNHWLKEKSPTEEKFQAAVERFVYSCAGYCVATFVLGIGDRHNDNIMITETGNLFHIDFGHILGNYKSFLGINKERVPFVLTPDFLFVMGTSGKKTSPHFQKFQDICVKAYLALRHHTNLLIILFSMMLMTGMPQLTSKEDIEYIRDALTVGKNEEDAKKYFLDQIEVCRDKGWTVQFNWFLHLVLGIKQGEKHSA
Experimental: as §1
(§2) The compounds of the invention were characterized by their ability to inhibit the target proteins using third party vendors offering such services. PI3K-alpha, PI3K-gamma, and PI3K-delta inhibition activity was determined by Thermo Fisher Scientific-Biosciences Life Sciences Solutions, Madison, WI. […] NI=no inhibition detected up to 50 μM or IC50 not reached at 50 μM. ND=not done.

[6] = molecular target: T4, PI3K-delta (Homo sapiens, UniProt O00329); experiment: PI3K inhibition (Thermo Fisher Scientific); type: biochemical; details: 10-point curve, grouped by potency; read-out: IC50 P13K δ
T4 construct: Thermo Fisher Scientific-Biosciences Life Sciences Solutions, Madison, WI (contract assay service)
T4 sequence (O00329 whole entry): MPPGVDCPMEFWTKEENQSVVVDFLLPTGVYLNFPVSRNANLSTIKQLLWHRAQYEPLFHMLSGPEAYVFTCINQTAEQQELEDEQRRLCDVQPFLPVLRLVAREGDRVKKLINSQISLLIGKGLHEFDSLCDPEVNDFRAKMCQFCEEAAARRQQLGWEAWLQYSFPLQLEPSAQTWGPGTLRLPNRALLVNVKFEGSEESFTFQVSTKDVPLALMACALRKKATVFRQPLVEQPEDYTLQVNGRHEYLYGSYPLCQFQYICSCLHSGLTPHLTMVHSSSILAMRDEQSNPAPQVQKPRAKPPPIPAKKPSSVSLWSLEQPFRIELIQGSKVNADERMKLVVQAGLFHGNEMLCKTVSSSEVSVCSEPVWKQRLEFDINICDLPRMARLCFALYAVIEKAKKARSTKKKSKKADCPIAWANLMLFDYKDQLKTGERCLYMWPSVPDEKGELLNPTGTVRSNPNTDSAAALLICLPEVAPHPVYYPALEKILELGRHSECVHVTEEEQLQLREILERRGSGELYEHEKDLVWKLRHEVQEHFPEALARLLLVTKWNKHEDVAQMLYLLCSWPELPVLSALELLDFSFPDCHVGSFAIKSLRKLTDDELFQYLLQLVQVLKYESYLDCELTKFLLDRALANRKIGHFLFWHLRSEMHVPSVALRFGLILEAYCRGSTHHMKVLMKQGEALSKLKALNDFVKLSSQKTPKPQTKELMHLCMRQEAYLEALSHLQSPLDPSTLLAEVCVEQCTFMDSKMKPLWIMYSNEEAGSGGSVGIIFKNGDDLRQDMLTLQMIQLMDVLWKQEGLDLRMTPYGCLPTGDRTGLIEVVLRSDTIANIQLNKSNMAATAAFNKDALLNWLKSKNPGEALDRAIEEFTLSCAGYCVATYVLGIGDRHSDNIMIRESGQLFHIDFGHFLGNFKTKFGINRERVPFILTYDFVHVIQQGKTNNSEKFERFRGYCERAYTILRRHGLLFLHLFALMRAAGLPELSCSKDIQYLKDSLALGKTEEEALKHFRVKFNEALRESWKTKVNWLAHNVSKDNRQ
T4 sequence (P27986 whole entry partner): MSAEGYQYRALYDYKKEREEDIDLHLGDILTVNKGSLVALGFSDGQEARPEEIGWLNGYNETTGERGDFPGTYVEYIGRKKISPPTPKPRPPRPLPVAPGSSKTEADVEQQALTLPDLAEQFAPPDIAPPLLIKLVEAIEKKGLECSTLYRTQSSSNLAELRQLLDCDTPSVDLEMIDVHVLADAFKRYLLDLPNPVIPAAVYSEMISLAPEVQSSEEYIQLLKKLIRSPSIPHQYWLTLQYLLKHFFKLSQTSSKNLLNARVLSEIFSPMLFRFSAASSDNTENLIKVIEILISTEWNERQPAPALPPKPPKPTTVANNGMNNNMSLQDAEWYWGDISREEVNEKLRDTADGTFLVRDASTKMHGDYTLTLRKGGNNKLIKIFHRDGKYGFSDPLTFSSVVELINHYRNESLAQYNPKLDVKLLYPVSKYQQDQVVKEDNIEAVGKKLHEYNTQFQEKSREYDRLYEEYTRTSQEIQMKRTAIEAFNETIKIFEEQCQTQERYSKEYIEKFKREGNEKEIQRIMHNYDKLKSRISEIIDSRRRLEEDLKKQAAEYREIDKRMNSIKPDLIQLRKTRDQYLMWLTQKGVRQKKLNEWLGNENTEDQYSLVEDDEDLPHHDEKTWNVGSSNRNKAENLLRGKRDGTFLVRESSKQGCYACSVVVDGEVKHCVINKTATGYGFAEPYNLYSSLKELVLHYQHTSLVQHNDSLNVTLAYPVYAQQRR
Experimental: as §1, §2

[7] = molecular target: DNA-PK (Homo sapiens, UniProt P78527); experiment: DNA-PK inhibition; type: biochemical
[8] = test system: Hepatocellular carcinoma, Neuroblastoma, and Mantle Cell lymphoma cell lines; experiment: Percent viability versus concentration, comparison with Palbociclib and combination; type: cell-based
Experimental: The percent viability versus concentration experimental procedures for hepatocellular carcinoma cell lines, neuroblastoma cell lines, and Mantle cell lymphoma cell lines was performed as described in example 6, example 4, and example 5, respectively.

[9] = Oral pharmacokinetic (PK) study (Quintara Discovery); type: in vivo; details: plasma, oral gavage 30 mg/kg
Excerpt: The in vivo anticancer activity displaying drug like properties also bears this out as shown in FIG. 9 and the corresponding example.

[10] = test system: Huh7 2H cell line; experiment: Huh7 2H cell viability; type: cell-based; details: Homo sapiens, Huh-7, 2 h
Experimental: (§3) Cells were seeded into 96-well plate at 1×10^4 cell per well in complete medium+10% FCS and incubated for 24 hours prior to the addition of compounds at concentrations ranging from 50 μM to 50 nM. Cell viability was quantitated 24 hours after the addition of compounds using AlamarBlue® viable cell detection reagent. IC50 curves were determined using Graphpad Prism software.
The procedures of example 6 were followed except using the Huh7 2H cell line.

[11] = test system: Hep3B; experiment: Hepatocellular carcinoma cell viability, AlamarBlue; type: cell-based; details: Homo sapiens, 24 hours, read-out: Hepatocarcinoma Cell Line IC50 Values Hep3B
Experimental: as §3

[12] = test system: Huh7; experiment: as above; type: cell-based; details: Homo sapiens, Huh-7; 24 hours; read-out: Hepatocarcinoma Cell Line IC50 Values Huh7
Experimental: as §3

[13] = test system: HepG2; experiment: as above; type: cell-based; details: Homo sapiens, 24 hours, read-out: Hepatocarcinoma Cell Line IC50 Values HepG2
Experimental: as §3

[14] = test system: Huh7 cells; experiment: Western blot signaling in IGF-1 stimulated Huh7 cells (p-AKT, pRB); type: cell-based; details: Huh7, serum starved, IGF-1 stimulation 30 min
Experimental: The hepatocellular carcinoma cell line, Huh7 was serum starved overnight in serum free medium. Cells were seeded into a 96 well tissue culture plate at 1×10^4 cells/well and pulsed with IGF-1 stimulation for 30 min at 37° C. at which time lysates were generated for SDS PAGE analysis. Western blot analysis was performed for p-AKT, AKT, pRB, RB and beta actin as loading control.

[15] = test system: Granta; experiment: Mantle cell lymphoma cell viability, AlamarBlue; type: cell-based
Experimental: (§4) Mantle cell lymphoma cell lines Granta, Mino and Jeko-1 were seeded at a density of 2500 cells/0.1 mL per well in a 96-well plate. Compounds 1 or Palbociclib were added post-plating at 50 μM-50 nM concentrations for 48 hours followed by addition of AlamarBlue® and incubation of plates at 37° C. in 5% CO2 for 6 hours. Fluorescence signals were read as emission at 590 nm after excitation at 560 nm. IC50 for each cell line was determined using Graphpad Prism software module.

[16] = test system: Jeko-1; experiment: Mantle cell lymphoma cell viability, AlamarBlue; type: cell-based
Experimental: as §4

[17] = test system: Mino; experiment: Mantle cell lymphoma cell viability, AlamarBlue; type: cell-based
Experimental: as §4

[18] = molecular target: PIM1 (Homo sapiens, UniProt P11309); experiment: PIM1 inhibition; type: biochemical
Sequence of PIM1 (P11309 whole entry, species assumed): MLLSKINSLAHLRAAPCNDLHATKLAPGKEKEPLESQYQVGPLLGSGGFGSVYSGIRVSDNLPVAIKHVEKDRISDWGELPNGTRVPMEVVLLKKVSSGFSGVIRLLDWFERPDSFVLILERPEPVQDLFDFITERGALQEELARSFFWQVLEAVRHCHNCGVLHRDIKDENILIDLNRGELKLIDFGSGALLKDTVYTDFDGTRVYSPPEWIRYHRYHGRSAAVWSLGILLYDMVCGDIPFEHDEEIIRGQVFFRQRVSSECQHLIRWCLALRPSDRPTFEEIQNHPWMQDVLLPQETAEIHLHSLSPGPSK

[19] = molecular target: T5, CDK4 (Homo sapiens, UniProt P11802); experiment: Cyclin dependent kinase inhibition (Reaction Biology Corp.); type: biochemical
T5 construct: Reaction Biology Corp., Malvern, PA (contract assay service)
T5 sequence (P11802 whole entry): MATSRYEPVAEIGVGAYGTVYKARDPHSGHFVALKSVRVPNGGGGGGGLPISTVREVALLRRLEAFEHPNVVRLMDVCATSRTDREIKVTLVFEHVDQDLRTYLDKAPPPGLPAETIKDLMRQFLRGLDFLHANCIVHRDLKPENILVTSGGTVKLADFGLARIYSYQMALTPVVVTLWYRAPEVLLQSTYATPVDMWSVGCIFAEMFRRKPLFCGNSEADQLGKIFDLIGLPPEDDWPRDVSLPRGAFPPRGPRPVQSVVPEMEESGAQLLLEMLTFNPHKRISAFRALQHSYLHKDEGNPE
T5 sequence (P24385 whole entry partner): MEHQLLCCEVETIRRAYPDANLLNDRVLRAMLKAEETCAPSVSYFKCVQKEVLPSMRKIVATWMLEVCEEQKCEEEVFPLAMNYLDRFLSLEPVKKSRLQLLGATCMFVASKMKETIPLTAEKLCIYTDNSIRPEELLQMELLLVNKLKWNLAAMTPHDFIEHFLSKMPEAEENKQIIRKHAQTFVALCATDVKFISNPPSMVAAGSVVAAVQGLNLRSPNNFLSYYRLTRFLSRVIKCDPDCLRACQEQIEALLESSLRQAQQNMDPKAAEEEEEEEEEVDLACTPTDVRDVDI
Experimental: as §1, §2

[20] = molecular target: T6, CDK6 (Homo sapiens, UniProt Q00534); experiment: as above; type: biochemical
T6 construct: Reaction Biology Corp., Malvern, PA (contract assay service)
T6 sequence (Q00534 whole entry): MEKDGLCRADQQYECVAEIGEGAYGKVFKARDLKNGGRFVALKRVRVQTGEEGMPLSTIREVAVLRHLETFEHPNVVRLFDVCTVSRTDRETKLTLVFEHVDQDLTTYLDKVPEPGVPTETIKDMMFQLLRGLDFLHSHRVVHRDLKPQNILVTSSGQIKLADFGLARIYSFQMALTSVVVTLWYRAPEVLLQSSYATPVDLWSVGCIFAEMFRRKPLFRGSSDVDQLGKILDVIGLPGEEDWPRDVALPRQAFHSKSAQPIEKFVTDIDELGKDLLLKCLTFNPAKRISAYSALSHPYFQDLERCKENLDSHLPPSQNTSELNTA
T6 sequence (P24385 whole entry partner): as the sequence (P24385 whole entry partner) above
Experimental: as §1, §2

[21] = test system: CHLA-255; experiment: Neuroblastoma cell viability, Alamar Blue; type: cell-based; details: Homo sapiens, 24 hours incubation
Experimental: (§5) IC50 for each cell line was determined using Graphpad Prism software module.

[22] = test system: CHLA-136; experiment: Neuroblastoma cell viability, Alamar Blue; type: cell-based; details: Homo sapiens, 24 hours incubation
Experimental: as §5

[23] = test system: SMS-KNCR; experiment: Neuroblastoma cell viability, Alamar Blue; type: cell-based; details: Homo sapiens, 24 hours incubation
Experimental: as §5

[24] = 10-point curve, grouped by potency

In the case of `CN(C)C(=O)c1cc2cnc(Nc3ccc(-c4csc5c(=O)cc(N6CCOCC6)oc45)cc3)nc2n1C1CCCC1` [Compound 1, {1-Cyclopentyl-6-[p-(5-morpholino-7-oxo-4-oxa-1-thia-3-indenyl)phenylamino]-1,5,7-triaza-1H-inden-2-yl} (dimethylamino) formaldehyde], the “PI3K-AKT signaling (p-AKT), Western blot” value [1] is reported as “inhibits”, the “cyclin D/RB signaling (phosphorylation of RB), Western blot” value [1] is reported as “inhibits” and the IC50 [2] is reported as 500 nM. The IC50 [3] was 2 nM, the “in vivo anticancer efficacy (Huh7 tumors)” value [4] was “comparable to the efficacy of 3 separate cognate inhibitors” and the IC50 [5] was 1000 to 5000 nM. For the same molecule, the IC50 [6] was under 100 nM, the IC50 [7] was 21 nM and the “cell viability compared with Palbociclib” value ([8]; Hepatocellular carcinoma, Neuroblastoma, Mantle Cell lymphoma cell lines (FIG. 8A-8C)) was “performed substantially better than Palbociclib”. The “cell viability compared with combination BKM120, JQ1, Palbociclib” value ([8]; hepatocellular carcinoma cells (FIG. 8D)) was “performed substantially better”, the concentration at 24 h ([9]; 24 hours) was 63 nM and the AUC(0-inf) ([9]; Hot Rod Formulation Kit #8) was 3520 ng·h/mL. The Cmax ([9]; Hot Rod Formulation Kit #8) was 1400 nM, the Tmax ([9]; Hot Rod Formulation Kit #8) was 0.5 h and the half-life ([9]; Hot Rod Formulation Kit #8, read-out: T1/2 (half-life) (converted)) was 10.4 h. It also gave an IC50 [10] of 495 nM, an IC50 [11] of 1100 nM and an IC50 [12] of 550 nM. The IC50 [13] was 4200 nM, the “phosphorylation of CDK target RB (pRB), Western blot” value [14] was “blocks phosphorylation” and the “phosphorylation of PI3K target AKT (p-AKT), Western blot” value [14] was “blocks phosphorylation”. For the same molecule, the IC50 ([15]; 48 hours, read-out: Mantle Cell Line IC50 Values Granta) was 580 nM, the “times more potent than Palbociclib, Granta” value ([15]; ratio of IC50 values) was 17.7 times and the IC50 ([16]; Homo sapiens, JeKo-1, 48 hours, read-out: Mantle Cell Line IC50 Values Jeko-1) was 851 nM. For the same molecule, the “times more potent than Palbociclib, Jeko-1” value ([16]; ratio of IC50 values) was 8.7 times, the IC50 ([17]; Homo sapiens, MINO, 48 hours, read-out: Mantle Cell Line IC50 Values Mino) was 583 nM and the “times more potent than Palbociclib, Mino” value ([17]; ratio of IC50 values) was 82.1 times. The IC50 [18] was 35 nM, the IC50 [19] was under 2.54 nM and the IC50 [19, 24] was under 100 nM. For the same molecule, the IC50 [20] was 3.26 nM, the IC50 [20, 24] was under 100 nM and the IC50 [21] was 385 nM. The IC50 [22] was 4500 nM and the IC50 [23] was 962 nM.
